Common to all, as to type: ADME, organism-based
Common to all, as to settings: in vivo

The species entered for series [1] is Homo sapiens. Kind of series: Drug level in patient serum with chronic graft-versus-host disease by HPLC analysis.
Series [2] is filed under the species Homo sapiens. The experiment in a line: Drug level in patient serum with acute graft-versus-host disease by HPLC analysis.
The species entered for series [3] is Homo sapiens. Kind of series: Drug level in patient serum with infection by HPLC analysis.
The species named for series [4] is Homo sapiens. The experiment in a line: Drug level in patient serum with invasive aspergillosis by HPLC analysis.

With `CC[C@@H]([C@H](C)O)n1ncn(-c2ccc(N3CCN(c4ccc(OC[C@@H]5CO[C@@](Cn6cncn6)(c6ccc(F)cc6F)C5)cc4)CC3)cc2)c1=O` [POSACONAZOLE], the Drug uptake in the series filed under Homo sapiens [1] came out at 1.47 µg/mL; in the series listed under Homo sapiens [2], 0.958 µg/mL; in the series listed under Homo sapiens [3] it was 0.611 µg/mL; in the series listed under Homo sapiens [4], 0.134 µg/mL.

(Values after ChEMBL document CHEMBL1649188, “Posaconazole therapeutic drug monitoring: a reference laboratory experience” (Antimicrob Agents Chemother, 2009).)
